Data taken from ChEMBL document CHEMBL3045461, “Biological evaluation of synthetic analogues of curcumin: chloro-substituted-2-hydroxychalcones as potential inhibitors of tubulin polymerization and cell proliferation” (Med Chem Res, 2011).
pIC50, pKd: −log10 of the molar value. Calls of active or inactive are those of the source. The calls are words filed in the database; no cut-off is given here.

Experiments:
[1] = system: SK-N-MC; assay: Cytotoxicity against Homo sapiens (human) SK-N-MC cells after 72 hr by MTT assay; assay type: functional, cell-based
[2] = system: K562; assay: Cytotoxicity against Homo sapiens (human) K562 cells after 72 hr by MTT assay; assay type: functional, cell-based; details: K562, 72 h
[3] = molecular target: T1, Tubulin alpha 4a (Ovis aries, UniProt C5ISA2); assay: (§1) Inhibition of Ovis aries (sheep) brain tubulin polymerization assessed as microtubule assembly after 15 min by measuring turbidity based spectroscopic analysis
T1 sequence (C5ISA2 1-448): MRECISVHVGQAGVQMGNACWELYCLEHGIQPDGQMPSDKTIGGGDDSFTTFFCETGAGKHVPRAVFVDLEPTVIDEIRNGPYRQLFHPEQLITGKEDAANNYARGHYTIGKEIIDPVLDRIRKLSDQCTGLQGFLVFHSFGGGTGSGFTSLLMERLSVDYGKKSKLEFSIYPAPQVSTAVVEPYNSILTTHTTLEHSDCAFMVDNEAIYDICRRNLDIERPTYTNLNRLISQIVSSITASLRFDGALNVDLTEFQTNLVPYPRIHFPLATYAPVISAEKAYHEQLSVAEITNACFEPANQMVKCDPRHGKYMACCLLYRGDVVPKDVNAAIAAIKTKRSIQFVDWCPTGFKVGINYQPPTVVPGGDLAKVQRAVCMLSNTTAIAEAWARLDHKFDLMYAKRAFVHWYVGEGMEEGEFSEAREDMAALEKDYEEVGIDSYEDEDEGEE

[4] = molecular target: Tubulin alpha 4a (Ovis aries) (UniProt C5ISA2); assay: as §1
Chain of Tubulin alpha 4a (Ovis aries) (C5ISA2 1-448): as above

[5] = system: K562; assay: Cytotoxicity against Homo sapiens (human) K562 cells; assay type: functional, cell-based
[6] = system: HeLa; assay: Antiproliferative activity against Homo sapiens (human) HeLa cells; assay type: functional, cell-based
[7] = system: MCF7; assay: Antiproliferative activity against Homo sapiens (human) MCF7 cells; assay type: functional, cell-based
[8] = molecular target: T1, Tubulin alpha 4a; assay: (§2) Inhibition of Ovis aries (sheep) brain tubulin polymerization assessed as microtubule assembly after 30 min by CD spectra analysis
[9] = molecular target: Tubulin alpha 4a (Ovis aries) (UniProt C5ISA2); assay: as §2
[10] = molecular target: Tubulin alpha 4a (Ovis aries) (UniProt C5ISA2); assay: Inhibition of Ovis aries (sheep) brain tubulin polymerization assessed as reduction of length of microtubule filament at 20 to 30 uM after 15 min by transmission electron microscopy analysis
[11] = molecular target: Tubulin alpha 4a (Ovis aries) (UniProt C5ISA2); assay: Binding affinity to Ovis aries (sheep) brain tubulin assessed as […] at 25 to 50 uM after 30 min by far-UV CD spectrum analysis
[12] = molecular target: Tubulin alpha 4a (Ovis aries) (UniProt C5ISA2); assay: Binding affinity to Ovis aries (sheep) brain tubulin assessed as increase in fluorescent intensity at 1:1 compound protein ratio after 30 min by fluorescence spectroscopic analysis
[13] = molecular target: T1, Tubulin alpha 4a; assay: (§3) Binding affinity to Ovis aries (sheep) brain tubulin assessed as intrinsic tryptophan fluorescence after 30 min by fluorescence spectroscopic analysis; assay type: tissue-based
[14] = molecular target: Tubulin alpha 4a (Ovis aries) (UniProt C5ISA2); assay: as §3; assay type: tissue-based
[15] = molecular target: Tubulin alpha 4a (Ovis aries) (UniProt C5ISA2); assay: Inhibition of Ovis aries (sheep) brain tubulin polymerization assessed as microtubule assembly at 30 uM after 30 min by CD spectra analysis

Compound | pIC50 [1] | pIC50 [2] | pIC50 [3] | inhibition [4] | pIC50 [5] | pIC50 [6] | pIC50 [7] | pIC50 [8] | inhibition [9] | inhibition [10] | Activity [11] | Activity [12] | pKd [13] | Activity [14] | inhibition [15]
O=C(/C=C/c1ccccc1Cl)c1cc(Cl)ccc1O | 4.29 | 4.38 | 4.67 | Dose-dependent effect |  |  |  |  |  |  |  |  |  |  | 
COc1cc(/C=C/C(=O)CC(=O)/C=C/c2ccc(O)c(OC)c2)ccc1O [CURCUMIN] | 4.24 | 4.31 | 4.58 |  | 4.27 | 4.86 | 4.92 |  |  |  |  |  |  |  | 
O=C(/C=C/c1cccc(Cl)c1)c1cc(Cl)ccc1O | 4.32 | 4.39 | 4.71 | Dose-dependent effect |  |  |  | 4.71 | Dose-dependent effect | Active | Active | Active | 5.43 | Dose-dependent effect | 89%
O=C(/C=C/c1ccc(Cl)cc1Cl)c1cc(Cl)ccc1O | 4.16 | 4.18 | < 4.30 |  |  |  |  |  |  |  |  |  |  |  | 
O=C(/C=C/c1ccc(Cl)cc1)c1cc(Cl)ccc1O | 4.34 | 4.41 | 4.69 | Dose-dependent effect |  |  |  |  |  |  |  |  |  |  | 
O=C(/C=C/c1ccccc1)c1ccccc1O [2'-HYDROXYCHALCONE] | 4.21 | 4.22 | 4.31 |  |  |  |  |  |  |  |  |  |  |  | 
